From patent US5780497A, “2-phenyl-1-[4-(amino-1-yl-alk-1-ynyl)-benzyl]-1H-indol-5-ols as estrogenic agents” (American Home Products Corporation, priority 1997, dated 1998)

Assays:
bone [1] = conditions: rat, in vivo; cited from earlier work
uterine growth = conditions: ovariectomized rat, compared with Tamoxifen; cited from earlier work
Ishikawa cells = assay: Ishikawa Cell Alkaline Phosphatase Assay; assay type: cell-based; conditions: Homo sapiens, 48 h, read-out: % Activation
Description: Ishikawa Cell Alkaline Phosphatase Assay
Cell Maintenance and Treatment
Ishikawa cells were maintained in DMEM/F12 (50%:50%) containing phenol red+10% fetal bovine serum and the medium was supplemented with 2 mM Glutamax, 1% Pen/Strap and 1 mM sodium pyruvate. Five days prior to the beginning of each experiment (treatment of cells) the medium was changed to phenol red-free DMEM/F12+10% dextran coated charcoal stripped serum. On the day before treatment, cells were harvested using 0.5% trypsin/EDTA and plated at a density of 5×10^4 cells/well in 96-well tissue culture plates. […] Cells were treated for 48 h prior to assay. […] Sample population for at each dose was n=8.
Alkaline Phosnhatase Assay
At the end of 48 h the media is aspirated and cells are washed three times with phosphate buffered saline (PBS). 50 μL of lysis buffer (0.1M Tris-HCl, pH 9.8, 0.2% Triton X-100) is added to each well. Plates are placed at -80° C. for a minimum of 15 minutes. Plates are thawed at 37° C. followed by the addition of 150 μL of 0.1M Tris-HCl, pH 9.8, containing 4 mM para-nitrophenylphosphate (pNPP) to each well (final concentration, 3 mM pNPP).
Absorbance and slope calculations were made using the KineticCalc Application program (Bio-Tek Instruments, Inc., Winooski, Vt.). Results are expressed as the mean±S.D. of the rate of enzyme reaction (slope) averaged over the linear portion of the kinetic reaction curve (optical density readings every 5 minutes for 30 minutes absorbance reading).
The four listed in the following were used as as reference standards:
A description of these methods is described by Holinka, C. F., Hata, H., Kuramoto, H. and Gurpide, E. (1986) Effects of steroid hormones and antisteroids on alkaline phosphatase activity in human endometrial cancer cells (Ishikawa Line). Cancer Research, 46:2771-2774, and by Littlefield, B. A., Gurpide, E., Markiewicz, L., McKinley, B. and Hochberg, R. B. (1990) A simple and sensitive microtiter plate estrogen bioassay based on stimulation alkaline phosphatase in Ishikawa cells; Estrogen action of D5 adrenal steroids. Endocrinology, 6:2757-2762.

estrogen receptor [2] = target: T1, estrogen receptor (Homo sapiens, UniProt P03372); assay: In vitro estrogen receptor binding assay (competition with [3H]-17β-estradiol); design: made in house; host or cells: CHO cells overexpressing the receptor (100,000 g cytosol)
T1 sequence (P03372 1-595): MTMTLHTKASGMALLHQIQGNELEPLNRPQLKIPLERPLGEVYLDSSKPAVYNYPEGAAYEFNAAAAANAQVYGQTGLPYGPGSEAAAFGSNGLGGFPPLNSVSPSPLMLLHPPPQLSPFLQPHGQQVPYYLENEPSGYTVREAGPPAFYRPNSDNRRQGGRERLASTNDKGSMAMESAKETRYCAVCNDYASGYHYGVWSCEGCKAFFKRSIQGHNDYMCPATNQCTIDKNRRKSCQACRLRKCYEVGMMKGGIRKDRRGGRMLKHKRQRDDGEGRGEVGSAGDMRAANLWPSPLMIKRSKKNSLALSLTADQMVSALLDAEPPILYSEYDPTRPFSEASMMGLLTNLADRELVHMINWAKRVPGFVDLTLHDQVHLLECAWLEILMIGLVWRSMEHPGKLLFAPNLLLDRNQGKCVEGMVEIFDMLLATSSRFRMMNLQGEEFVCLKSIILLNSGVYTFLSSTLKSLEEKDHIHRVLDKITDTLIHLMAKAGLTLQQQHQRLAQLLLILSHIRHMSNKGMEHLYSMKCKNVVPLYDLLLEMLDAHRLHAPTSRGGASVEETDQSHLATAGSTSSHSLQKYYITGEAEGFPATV

estrogen receptor [3] = target: T1, estrogen receptor; assay: 2X VIT ERE Transfection Assay (luciferase); assay type: cell-based; design: expressed in transfected cells; host or cells: CHO (Chinese Hamster Ovary) cells, stably transfected; conditions: 24 h; read-out: % Activation
uterus = conditions: in vivo; cited from earlier work
bone [4] = conditions: in humans; cited from earlier work

| RBA (Estrogen Receptor Affinity) (estrogen receptor [2]) | Emax at 1 µM (estrogen receptor [3]) [%] | Structure (SMILES) | ability to spare bone (bone [1]) | stimulation of uterine growth (uterine growth) | Emax (Ishikawa cells) [%] | agonism in the uterus (uterus) | effect on the bone (bone [4]) |
| --- | --- | --- | --- | --- | --- | --- | --- |
| – | – | O=C(c1ccc(OCCN2CCCCC2)cc1)c1c(-c2ccc(O)cc2)sc2cc(O)ccc12 [Raloxifene] | maintaining the ability to spare bone | to a lesser extent than Tamoxifen | 5 | – | – |
| 53 | 34 | Cc1c(-c2ccc(O)cc2)n(Cc2ccc(C#CCN(C)C)cc2)c2ccc(O)cc12 [Example 4, 2-(4-Hydroxy-phenyl)-3-methyl-1-[4-(3-N,N-dimethyl-1-yl-prop-1-ynyl)-benzyl]-1H-indol-5-ol] | – | – | 34 | – | – |
| – | – | CC/C(=C(\c1ccccc1)c1ccc(OCCN(C)C)cc1)c1ccccc1 [Tamoxifen] | – | – | 0 | partial agonist in the uterus | estrogen agonist-like effect on the bone |
| 23 | 17 | Cc1c(-c2ccc(O)cc2)n(Cc2ccc(C#CCN3CCCCC3)cc2)c2ccc(O)cc12 [Example 5, 2-(4-Hydroxy-phenyl)-3-methyl-1-[4-(3-piperidin-1-yl-prop-1-ynyl)-benzyl]-1H-indol-5-ol] | – | – | 27 | – | – |
